# What was measured:
# [1] = Stability of calibration standards in spent receiver fluid; type: physicochemical; settings: vs T = 0
# [2] = 52-week dermal photoco-carcinogenicity study; type: in vivo, hairless mice; settings: 3×/week, 40 weeks, concurrent UV radiation
# Description: In a 52-week dermal photoco-carcinogenicity study, the median time to onset of skin tumor formation was decreased in hairless mice following chronic topical dosing (3×/week; 40 weeks of treatment followed by 12 weeks of observation) with concurrent exposure to UV radiation (5 days per week) with vehicle alone.
# Vehicle cream enhanced UVR-induced skin tumour development.
# [3] = Skin, eye and vaginal irritation studies; type: in vivo, rabbits
# Description: The more severe dermal irritation seen in the rat is not predictive of human response.
structure (smiles),measurement,setting,value
"CC(C)Cn1cnc2c(N)nc3ccccc3c21 [imiquimod, 1-(2-methylpropyl)-1H-imidazo[4,5-c]quinolin-4-amine]",48 h % recovered in Spent receiver fluid,"[1]; Standard 42.2 μg/ml, Full thickness + placebo, RT",84.144%
same,48 h % recovered in Spent receiver fluid,"[1]; Standard 42.2 μg/ml, Full thickness, 37° C.",95.939%
same,48 h % recovered in Spent receiver fluid,"[1]; Standard 42.2 μg/ml, Full thickness, Fridge",95.103%
same,48 h % recovered in Spent receiver fluid,"[1]; Standard 42.2 μg/ml, Full thickness, RT",95.805%
same,48 h % recovered in Spent receiver fluid,"[1]; Standard 52.75 μg/ml, Epidermal sheet + placebo, 37° C.",86.906%
same,48 h % recovered in Spent receiver fluid,"[1]; Standard 52.75 μg/ml, Epidermal sheet + placebo, Fridge",85.635%
same,48 h % recovered in Spent receiver fluid,"[1]; Standard 52.75 μg/ml, Epidermal sheet + placebo, RT",88.169%
same,48 h % recovered in Spent receiver fluid,"[1]; Standard 52.75 μg/ml, Epidermal sheet, 37° C.",90.943%
same,48 h % recovered in Spent receiver fluid,"[1]; Standard 52.75 μg/ml, Epidermal sheet, Fridge",87.669%
same,48 h % recovered in Spent receiver fluid,"[1]; Standard 52.75 μg/ml, Epidermal sheet, RT",89.096%
same,48 h % recovered in Spent receiver fluid,"[1]; Standard 52.75 μg/ml, Full thickness + placebo, 37° C.",93.779%
same,48 h % recovered in Spent receiver fluid,"[1]; Standard 52.75 μg/ml, Full thickness + placebo, Fridge",91.776%
same,48 h % recovered in Spent receiver fluid,"[1]; Standard 52.75 μg/ml, Full thickness + placebo, RT",92.027%
same,48 h % recovered in Spent receiver fluid,"[1]; Standard 52.75 μg/ml, Full thickness, 37° C.",95.282%
same,48 h % recovered in Spent receiver fluid,"[1]; Standard 52.75 μg/ml, Full thickness, Fridge",92.317%
same,48 h % recovered in Spent receiver fluid,"[1]; Standard 52.75 μg/ml, Full thickness, RT",92.152%
same,48 h % recovered in Spent receiver fluid,"[1]; Standard 84.4 μg/ml, Epidermal sheet + placebo, 37° C.",98.178%
same,48 h % recovered in Spent receiver fluid,"[1]; Standard 84.4 μg/ml, Epidermal sheet + placebo, Fridge",95.620%
same,48 h % recovered in Spent receiver fluid,"[1]; Standard 84.4 μg/ml, Epidermal sheet + placebo, RT",96.033%
same,48 h % recovered in Spent receiver fluid,"[1]; Standard 84.4 μg/ml, Epidermal sheet, 37° C.",82.694%
same,48 h % recovered in Spent receiver fluid,"[1]; Standard 84.4 μg/ml, Epidermal sheet, Fridge",81.350%
same,48 h % recovered in Spent receiver fluid,"[1]; Standard 84.4 μg/ml, Epidermal sheet, RT",82.276%
same,48 h % recovered in Spent receiver fluid,"[1]; Standard 84.4 μg/ml, Full thickness + placebo, 37° C.",85.629%
same,48 h % recovered in Spent receiver fluid,"[1]; Standard 84.4 μg/ml, Full thickness + placebo, Fridge",84.561%
same,48 h % recovered in Spent receiver fluid,"[1]; Standard 84.4 μg/ml, Full thickness + placebo, RT",84.421%
same,48 h % recovered in Spent receiver fluid,"[1]; Standard 84.4 μg/ml, Full thickness, 37° C.",101.010%
same,48 h % recovered in Spent receiver fluid,"[1]; Standard 84.4 μg/ml, Full thickness, Fridge",98.841%
same,48 h % recovered in Spent receiver fluid,"[1]; Standard 84.4 μg/ml, Full thickness, RT",99.790%
same,48 h % recovered in Spent receiver fluid,"[1]; Standard 105.5 μg/ml, Epidermal sheet + placebo, 37° C.",84.903%
same,48 h % recovered in Spent receiver fluid,"[1]; Standard 105.5 μg/ml, Epidermal sheet + placebo, Fridge",83.833%
same,48 h % recovered in Spent receiver fluid,"[1]; Standard 105.5 μg/ml, Epidermal sheet + placebo, RT",84.515%
same,48 h % recovered in Spent receiver fluid,"[1]; Standard 105.5 μg/ml, Epidermal sheet, 37° C.",91.501%
same,48 h % recovered in Spent receiver fluid,"[1]; Standard 105.5 μg/ml, Epidermal sheet, Fridge",90.465%
same,48 h % recovered in Spent receiver fluid,"[1]; Standard 105.5 μg/ml, Epidermal sheet, RT",92.089%
same,48 h % recovered in Spent receiver fluid,"[1]; Standard 105.5 μg/ml, Full thickness + placebo, 37° C.",91.704%
same,48 h % recovered in Spent receiver fluid,"[1]; Standard 105.5 μg/ml, Full thickness + placebo, Fridge",88.242%
same,48 h % recovered in Spent receiver fluid,"[1]; Standard 105.5 μg/ml, Full thickness + placebo, RT",88.546%
same,48 h % recovered in Spent receiver fluid,"[1]; Standard 105.5 μg/ml, Full thickness, 37° C.",92.278%
same,48 h % recovered in Spent receiver fluid,"[1]; Standard 105.5 μg/ml, Full thickness, Fridge",90.545%
same,48 h % recovered in Spent receiver fluid,"[1]; Standard 105.5 μg/ml, Full thickness, RT",92.275%
same,48 h % recovered in Spent receiver fluid,"[1]; Standard […] μg/ml, Epidermal sheet + placebo, 37° C.",89.945%
same,48 h % recovered in Spent receiver fluid,"[1]; Standard […] μg/ml, Epidermal sheet + placebo, Fridge",84.046%
same,48 h % recovered in Spent receiver fluid,"[1]; Standard […] μg/ml, Epidermal sheet + placebo, RT",85.095%
same,48 h % recovered in Spent receiver fluid,"[1]; Standard […] μg/ml, Epidermal sheet, 37° C.",97.099%
same,48 h % recovered in Spent receiver fluid,"[1]; Standard […] μg/ml, Epidermal sheet, Fridge",93.180%
same,48 h % recovered in Spent receiver fluid,"[1]; Standard […] μg/ml, Epidermal sheet, RT",94.971%
same,48 h % recovered in Spent receiver fluid,"[1]; Standard […] μg/ml, Full thickness + placebo, 37° C.",90.798%
same,48 h % recovered in Spent receiver fluid,"[1]; Standard […] μg/ml, Full thickness + placebo, Fridge",88.307%
same,48 h % recovered in Spent receiver fluid,"[1]; Standard […] μg/ml, Full thickness + placebo, RT",86.897%
same,48 h % recovered in Spent receiver fluid,"[1]; Standard […] μg/ml, Full thickness, 37° C.",97.826%
same,48 h % recovered in Spent receiver fluid,"[1]; Standard […] μg/ml, Full thickness, Fridge",94.989%
same,48 h % recovered in Spent receiver fluid,"[1]; Standard […] μg/ml, Full thickness, RT",93.522%
same,Effect on tumor development beyond the vehicle effect,[2],No additional effect on tumor development beyond the vehicle effect
same,Vaginal tract irritation,"[3]; rat or rabbit, every other day for 10 days at 10 and 50 mg/dose",not irritating
same,Eye irritation,[3]; unformulated at 100 mg/eye or formulated up to 5 mg/eye,mild or no eye irritation
same,Skin irritation,[3]; unformulated at 500 mg or formulated up to 250 mg per site,non-irritating

# Source: US8222270B2 (Medicis Pharmaceutical Corporation, priority 2008, dated 2012)
